Assays:
Experiment in all cases: relative viability (nuclei count vs DMSO), 5 days (fraction); higher = more cells survive
[1] = tested on: RERF-LC-KJ
Method in brief: (§1)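 Values are medians from duplicate plates. Each reflects relative viability, defined as the nuclei count of treated wells over that of vehicle wells. Lung cancer cell lines in 1536-well plates were pin-tool dosed one day after seeding with one drug alone or with a fixed anchor-drug dose plus five library-drug doses (not always all listed) in √10 steps, then fixed, stained and imaged at 4× after 5 days.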

[2] = tested on: NCI-H460
Method in brief: as §1

[3] = tested on: NCI-H647
Method in brief: as §1

[4] = tested on: NCI-H2228
Method in brief: as §1

[5] = tested on: NCI-H1734
Method in brief: as §1

[6] = tested on: HOP-62
Method in brief: as §1

[7] = tested on: A-427
Method in brief: as §1

[8] = tested on: LC-2-ad
Method in brief: as §1

[9] = tested on: NCI-H2347
Method in brief: as §1

[10] = tested on: SW 1573
Method in brief: as §1

[11] = tested on: NCI-H2126
Method in brief: as §1

[12] = tested on: HCC-78
Method in brief: as §1

[13] = tested on: NCI-H1975
Method in brief: as §1

[14] = tested on: NCI-H1792
Method in brief: as §1

[15] = tested on: SK-LU-1
Method in brief: as §1

[16] = tested on: LXF-289
Method in brief: as §1

[17] = tested on: HCC-15
Method in brief: as §1

[18] = tested on: NCI-H1755
Method in brief: as §1

[19] = tested on: NCI-H1915
Method in brief: as §1

[20] = tested on: PC-3 [JPC-3]
Method in brief: as §1

[21] = tested on: LOU-NH91
Method in brief: as §1

[22] = tested on: NCI-H358
Method in brief: as §1

Oc1nc(-c2ccc(C(F)(F)F)cc2)nc2c1CSCC2 [XAV939] + CS(=O)(=O)N1CCN(Cc2cc3nc(-c4cccc5[nH]ncc45)nc(N4CCOCC4)c3s2)CC1 [Pictilisib] (partner 1 µM)
relative viability ([1]; first compound 0.08 µM): 0.61 | relative viability ([1]; first compound 0.253 µM): 0.457 | relative viability ([1]; first compound 0.8 µM): 0.419 | relative viability ([1]; first compound 2.53 µM): 0.366 | relative viability ([2]; first compound 0.08 µM): 0.362 | relative viability ([2]; first compound 0.253 µM): 0.332 | relative viability ([2]; first compound 0.8 µM): 0.284 | relative viability ([2]; first compound 2.53 µM): 0.334 | relative viability ([3]; first compound 0.08 µM): 0.471 | relative viability ([3]; first compound 0.253 µM): 0.378 | relative viability ([3]; first compound 0.8 µM): 0.381 | relative viability ([3]; first compound 2.53 µM): 0.51 | relative viability ([4]; first compound 0.08 µM): 0.247 | relative viability ([4]; first compound 0.253 µM): 0.304 | relative viability ([4]; first compound 0.8 µM): 0.253 | relative viability ([4]; first compound 2.53 µM): 0.382 | relative viability ([5]; first compound 0.08 µM): 0.488 | relative viability ([5]; first compound 0.253 µM): 0.418 | relative viability ([5]; first compound 0.8 µM): 0.371 | relative viability ([5]; first compound 2.53 µM): 0.383 | relative viability ([6]; first compound 0.08 µM): 1.04 | relative viability ([6]; first compound 0.253 µM): 0.62 | relative viability ([6]; first compound 0.8 µM): 0.596 | relative viability ([6]; first compound 2.53 µM): 0.672 | relative viability ([7]; first compound 0.08 µM): 0.962 | relative viability ([7]; first compound 0.253 µM): 0.63 | relative viability ([7]; first compound 0.8 µM): 0.596 | relative viability ([7]; first compound 2.53 µM): 0.65 | relative viability ([8]; first compound 0.08 µM): 0.5 | relative viability ([8]; first compound 0.253 µM): 1.13 | relative viability ([8]; first compound 0.8 µM): 0.407 | relative viability ([8]; first compound 2.53 µM): 0.428 | relative viability ([9]; first compound 0.08 µM): 0.681 | relative viability ([9]; first compound 0.253 µM): 0.636 | relative viability ([9]; first compound 0.8 µM): 0.418 | relative viability ([9]; first compound 2.53 µM): 0.523 | relative viability ([10]; first compound 0.08 µM): 0.542 | relative viability ([10]; first compound 0.253 µM): 0.403 | relative viability ([10]; first compound 0.8 µM): 0.357 | relative viability ([10]; first compound 2.53 µM): 0.392 | relative viability ([11]; first compound 0.08 µM): 0.477 | relative viability ([11]; first compound 0.253 µM): 0.448 | relative viability ([11]; first compound 0.8 µM): 0.473 | relative viability ([11]; first compound 2.53 µM): 0.406 | relative viability ([12]; first compound 0.08 µM): 0.216 | relative viability ([12]; first compound 0.253 µM): 0.206 | relative viability ([12]; first compound 0.8 µM): 0.161 | relative viability ([12]; first compound 2.53 µM): 0.213 | relative viability ([13]; first compound 0.08 µM): 0.258 | relative viability ([13]; first compound 0.253 µM): 0.263 | relative viability ([13]; first compound 0.8 µM): 0.248 | relative viability ([13]; first compound 2.53 µM): 0.207 | relative viability ([14]; first compound 0.08 µM): 0.331 | relative viability ([14]; first compound 0.253 µM): 0.254 | relative viability ([14]; first compound 0.8 µM): 0.229 | relative viability ([14]; first compound 2.53 µM): 0.257 | relative viability ([15]; first compound 0.08 µM): 0.631 | relative viability ([15]; first compound 0.253 µM): 0.504 | relative viability ([15]; first compound 0.8 µM): 0.646 | relative viability ([15]; first compound 2.53 µM): 0.565 | relative viability ([16]; first compound 0.08 µM): 0.872 | relative viability ([16]; first compound 0.253 µM): 0.731 | relative viability ([16]; first compound 0.8 µM): 0.764 | relative viability ([16]; first compound 2.53 µM): 0.597 | relative viability ([17]; first compound 0.08 µM): 0.858 | relative viability ([17]; first compound 0.253 µM): 0.632 | relative viability ([17]; first compound 0.8 µM): 0.736 | relative viability ([17]; first compound 2.53 µM): 0.755 | relative viability ([18]; first compound 0.08 µM): 0.456 | relative viability ([18]; first compound 0.253 µM): 0.353 | relative viability ([18]; first compound 0.8 µM): 0.413 | relative viability ([18]; first compound 2.53 µM): 0.388 | relative viability ([19]; first compound 0.08 µM): 1.11 | relative viability ([19]; first compound 0.253 µM): 0.967 | relative viability ([19]; first compound 0.8 µM): 0.941 | relative viability ([19]; first compound 2.53 µM): 0.921 | relative viability ([20]; first compound 0.08 µM): 0.681 | relative viability ([20]; first compound 0.253 µM): 0.602 | relative viability ([20]; first compound 0.8 µM): 0.663 | relative viability ([20]; first compound 2.53 µM): 0.697 | relative viability ([21]; first compound 0.08 µM): 0.498 | relative viability ([21]; first compound 0.253 µM): 0.471 | relative viability ([21]; first compound 0.8 µM): 0.509 | relative viability ([21]; first compound 2.53 µM): 0.504 | relative viability ([22]; first compound 0.08 µM): 0.306 | relative viability ([22]; first compound 0.253 µM): 0.232 | relative viability ([22]; first compound 0.8 µM): 0.336 | relative viability ([22]; first compound 2.53 µM): 0.277

Oc1nc(-c2ccc(C(F)(F)F)cc2)nc2c1CSCC2 [XAV939] + Cc1nc(NC(=O)N2CCC[C@H]2C(N)=O)sc1-c1ccnc(C(C)(C)C(F)(F)F)c1 [Alpelisib] (partner 2 µM)
relative viability ([1]; first compound 0.08 µM): 0.702 | relative viability ([1]; first compound 0.253 µM): 0.708 | relative viability ([1]; first compound 0.8 µM): 0.768 | relative viability ([1]; first compound 2.53 µM): 0.735 | relative viability ([2]; first compound 0.08 µM): 0.679 | relative viability ([2]; first compound 0.253 µM): 0.36 | relative viability ([2]; first compound 0.8 µM): 0.53 | relative viability ([2]; first compound 2.53 µM): 0.359 | relative viability ([3]; first compound 0.08 µM): 1.25 | relative viability ([3]; first compound 0.253 µM): 1 | relative viability ([3]; first compound 0.8 µM): 1.06 | relative viability ([3]; first compound 2.53 µM): 0.922 | relative viability ([4]; first compound 0.08 µM): 0.708 | relative viability ([4]; first compound 0.253 µM): 0.757 | relative viability ([4]; first compound 0.8 µM): 0.536 | relative viability ([4]; first compound 2.53 µM): 0.463 | relative viability ([5]; first compound 0.08 µM): 0.713 | relative viability ([5]; first compound 0.253 µM): 0.64 | relative viability ([5]; first compound 0.8 µM): 0.634 | relative viability ([5]; first compound 2.53 µM): 0.606 | relative viability ([6]; first compound 0.08 µM): 1.02 | relative viability ([6]; first compound 0.253 µM): 0.54 | relative viability ([6]; first compound 0.8 µM): 0.673 | relative viability ([6]; first compound 2.53 µM): 0.69 | relative viability ([7]; first compound 0.08 µM): 1.12 | relative viability ([7]; first compound 0.253 µM): 1.03 | relative viability ([7]; first compound 0.8 µM): 1.03 | relative viability ([7]; first compound 2.53 µM): 1.02 | relative viability ([8]; first compound 0.08 µM): 0.901 | relative viability ([8]; first compound 0.253 µM): 0.711 | relative viability ([8]; first compound 0.8 µM): 0.848 | relative viability ([8]; first compound 2.53 µM): 0.804 | relative viability ([9]; first compound 0.08 µM): 1.08 | relative viability ([9]; first compound 0.253 µM): 0.97 | relative viability ([9]; first compound 0.8 µM): 1.05 | relative viability ([9]; first compound 2.53 µM): 0.926 | relative viability ([10]; first compound 0.08 µM): 0.712 | relative viability ([10]; first compound 0.253 µM): 0.552 | relative viability ([10]; first compound 0.8 µM): 0.515 | relative viability ([10]; first compound 2.53 µM): 0.464 | relative viability ([11]; first compound 0.08 µM): 0.748 | relative viability ([11]; first compound 0.253 µM): 0.661 | relative viability ([11]; first compound 0.8 µM): 0.664 | relative viability ([11]; first compound 2.53 µM): 0.563 | relative viability ([12]; first compound 0.08 µM): 0.35 | relative viability ([12]; first compound 0.253 µM): 0.248 | relative viability ([12]; first compound 0.8 µM): 0.375 | relative viability ([12]; first compound 2.53 µM): 0.273 | relative viability ([13]; first compound 0.08 µM): 0.619 | relative viability ([13]; first compound 0.253 µM): 0.573 | relative viability ([13]; first compound 0.8 µM): 0.566 | relative viability ([13]; first compound 2.53 µM): 0.445 | relative viability ([14]; first compound 0.08 µM): 0.924 | relative viability ([14]; first compound 0.253 µM): 0.667 | relative viability ([14]; first compound 0.8 µM): 0.671 | relative viability ([14]; first compound 2.53 µM): 0.594 | relative viability ([15]; first compound 0.08 µM): 0.993 | relative viability ([15]; first compound 0.253 µM): 0.883 | relative viability ([15]; first compound 0.8 µM): 1 | relative viability ([15]; first compound 2.53 µM): 1.07 | relative viability ([16]; first compound 0.08 µM): 1.04 | relative viability ([16]; first compound 0.253 µM): 0.996 | relative viability ([16]; first compound 0.8 µM): 1.01 | relative viability ([16]; first compound 2.53 µM): 1.01 | relative viability ([17]; first compound 0.08 µM): 1 | relative viability ([17]; first compound 0.253 µM): 0.939 | relative viability ([17]; first compound 0.8 µM): 0.925 | relative viability ([17]; first compound 2.53 µM): 0.946 | relative viability ([18]; first compound 0.08 µM): 0.895 | relative viability ([18]; first compound 0.253 µM): 0.808 | relative viability ([18]; first compound 0.8 µM): 0.888 | relative viability ([18]; first compound 2.53 µM): 0.735 | relative viability ([19]; first compound 0.08 µM): 1.08 | relative viability ([19]; first compound 0.253 µM): 1.07 | relative viability ([19]; first compound 0.8 µM): 1.03 | relative viability ([19]; first compound 2.53 µM): 1.08 | relative viability ([20]; first compound 0.08 µM): 1 | relative viability ([20]; first compound 0.253 µM): 0.962 | relative viability ([20]; first compound 0.8 µM): 1.07 | relative viability ([20]; first compound 2.53 µM): 0.962 | relative viability ([21]; first compound 0.08 µM): 0.687 | relative viability ([21]; first compound 0.253 µM): 0.659 | relative viability ([21]; first compound 0.8 µM): 0.714 | relative viability ([21]; first compound 2.53 µM): 0.648 | relative viability ([22]; first compound 0.08 µM): 0.815 | relative viability ([22]; first compound 0.253 µM): 0.671 | relative viability ([22]; first compound 0.8 µM): 0.915 | relative viability ([22]; first compound 2.53 µM): 0.591

— the supplement of paper PMC10307832
